# Test results reported in US8569379B2 (Teva Pharmaceutical Industries Ltd., priority 2010, dated 2013).
# Where two headings read alike, the source gives them in different places.
# Experiments:
# [1] = system: alpha-synuclein over-expressing (mutants) mice (Thy1-aSyn)
# Source text: (§1) Transgenic mice overexpressing alpha-synuclein under the Thy1 promoter (Thy1-aSyn) have high levels of alpha-synuclein expression throughout the brain but no loss of nigrostriatal dopamine neurons up to 8 months. […] Overexpression of alpha-synuclein is sufficient to cause olfactory deficits in mice similar to that observed in patients with PD (2).
# Odor detection threshold is the lowest concentration (dilution 10^−8; 10^−6; 10^−4 in the water) at which mice are able to detect a novel odor. Upon detection of a novel odor, mice will spend more time sniffing it. The detection threshold was measured as percentage of time sniffing novel odor out of total time of sniffing.
# Wild type (WT) mice [2] = system: Wild type (WT) mice
# Source text: (§2) The underlying principle was that if mice would spend less time sniffing the odor at T2 (second exposure to the odor) their short term olfactory memory is intact. The testing parameter was percentage of time of sniffing at T2, calculated as time of sniffing at T2 out of total time of sniffing at T1 (first exposure) & T2.
# [3] = system: alpha-synuclein over-expressing (mutants) mice (Thy1-aSyn); details: α-syn mutants; in particular at the 1.5 min interval
# Source text: as §1, §2
# Wild type (WT) mice [4] = details: strong intensity
# Source text: (§3) The experiment was further subdivided into two levels of odor intensity:
# (§4) Light intensity: two days of odor impregnation
# (§5) Strong intensity: seven days of odor impregnation
# (§6) The testing parameter was percentage of time of sniffing novel odor out of total time of sniffing.
# [5] = system: alpha-synuclein over-expressing (mutants) mice (Thy1-aSyn); remark: listed apart in the source
# Source text: as §1, §3, §4, §5, §6
# Wild type (WT) mice [6] = details: WT mice receiving rasagiline, group mean, n = 18
# Source text: In this experiment, lemon odor served as a familiar odor (F), and lime—as a novel odor (N) (FIG. 4A). Mice capable of discriminating between the odors will spend more time sniffing the new odor. The testing parameter was percentage of time of sniffing novel odor out of total time of sniffing.
# [7] = system: alpha-synuclein over-expressing (mutants) mice (Thy1-aSyn); remark: listed apart in the source
# Source text: Transgenic mice overexpressing alpha-synuclein under the Thy1 promoter (Thy1-aSyn) have high levels of alpha-synuclein expression throughout the brain but no loss of nigrostriatal dopamine neurons up to 8 months. […] Overexpression of alpha-synuclein is sufficient to cause olfactory deficits in mice similar to that observed in patients with PD (2). […] In this experiment, lemon odor served as a familiar odor (F), and lime—as a novel odor (N) (FIG. 4A). Mice capable of discriminating between the odors will spend more time sniffing the new odor. The testing parameter was percentage of time of sniffing novel odor out of total time of sniffing.
# Wild type (WT) mice [8] = details: WT mice receiving rasagiline; group mean, n = 18
# Source text: (§7) The time periods that mice spent sniffing lemon and lime were compared. The testing parameters were percentage of time of sniffing lemon out of total time of sniffing and percentage of time of sniffing lime out of total time of sniffing.
# [9] = system: alpha-synuclein over-expressing (mutants) mice (Thy1-aSyn); details: α-syn mutants receiving rasagiline; group mean, n = 19
# Source text: as §1, §7
# Wild type (WT) mice [10] = details: for Time of exploration: novel object; for Time of exploration / % Time exploring novel object: WT mice receiving rasagiline, individual mice, Mean row = group mean (n = 9); for % Time exploring novel object: out of total time of the trial
# Source text: (§8) The testing parameters were percentage of time exploring the novel object out of total time of the trial.
# [11] = system: alpha-synuclein over-expressing (mutants) mice (Thy1-aSyn); remark: listed apart in the source
# Source text: as §1, §8
# Wild type (WT) mice [12] = details: WT mice receiving rasagiline; group mean, n = 9
# Source text: The objective was to determine whether the odor discrimination deficit was specific to the olfactory function (FIG. 7A).
# The testing parameters was percentage of time exploring the novel object/odor out of total time of exploration.
# [13] = system: alpha-synuclein over-expressing (mutants) mice (Thy1-aSyn); remark: listed apart in the source
# Source text: as §1, with “(2). […] The objective was to determine whether the odor discrimination deficit was specific to the olfactory function (FIG. 7A). The testing parameters was percentage of time exploring the novel object/odor out of total time of exploration.” for “(2).”
# [14] = system: transgenic mouse models for the study of olfactory loss
# Source text: (Lane et al., “Development of transgenic mouse models for the study of human olfactory dysfunction”, Am J. Rhinol., 2005, May-June; 19(3):229-35.)
# [15] = strong social odors, α-syn mutants receiving rasagiline, group mean, n = 20
# [16] = non-social odors, N = lime (novel)
# [17] = non-social odors, N = lime (novel), α-syn mutants receiving rasagiline, group mean, n = 20
# [18] = α-syn mutants receiving rasagiline, group mean, n = 9
structure (smiles),measurement,setting,value
"C#CCN[C@@H]1CCc2ccccc21 [Rasagiline, R(+)-N-propargyl-1-aminoindan]",odor threshold (lowest odor dilution detected),"[1]; α-syn mutants with rasagiline, untreated mutants 10^−4, dilution in water",10^6
same,odor detection ability,"[1]; α-syn mutants, odor concentration 10^−6",improved the odor detection ability of α-syn mutants
same,short-term olfactory memory compared to WT-water,Wild type (WT) mice [2]; ITI of 2 min,reduced short-term olfactory memory compared to WT-water
same,effect on short term olfactory memory,Wild type (WT) mice [2]; in particular at the 1.5 min interval,positive effect on short term olfactory memory
same,effect on short term olfactory memory,[3],positive effect on short term olfactory memory
same,discrimination of strong social odor,Wild type (WT) mice [4],improves discrimination of strong social odor
same,Time Sniffing F,[5]; [15],3.1
same,Total time sniffing,[5]; [15],12.4
same,discrimination of light social odor,"[5]; α-syn mutants, light intensity",improves discrimination of light social odor
same,discrimination of strong social odor,"[5]; α-syn mutants, strong intensity",improves discrimination of strong social odor
same,Total time sniffing,Wild type (WT) mice [6]; non-social odors lemon/lime,42.5
same,Time Sniffing F,"Wild type (WT) mice [6]; non-social odors, F = lemon (familiar)",11.9
same,% time sniffing N,Wild type (WT) mice [6]; [16],72.1%
same,Time Sniffing N,Wild type (WT) mice [6]; [16],30.6
same,Total time sniffing,"[7]; non-social odors lemon/lime, α-syn mutants receiving rasagiline, group mean, n = 20",14.8
same,Time Sniffing F,"[7]; non-social odors, F = lemon (familiar), α-syn mutants receiving rasagiline, group mean, n = 20",3.7
same,% time sniffing N,[7]; [17],70.2%
same,Time Sniffing N,[7]; [17],11.2
same,discrimination of two close non-social odors,"[7]; α-syn mutant mice, lemon (familiar) vs lime (novel)",improves discrimination of two close non-social odors
same,% Time sniffing Lemon,Wild type (WT) mice [8],52.9%
same,% Time sniffing Lime,Wild type (WT) mice [8],47.1%
same,Time of sniffing (s) Lemon,Wild type (WT) mice [8],25.9 s
same,Time of sniffing (s) Lime,Wild type (WT) mice [8],23.3 s
same,Time of sniffing (s) Total,Wild type (WT) mice [8],49.2 s
same,% Time sniffing Lime,[9],52.6%
same,Time of sniffing (s) Lemon,[9],6.1 s
same,Time of sniffing (s) Lime,[9],8.7 s
same,Time of sniffing (s) Total,[9],14.9 s
same,effect on novel object exploration,Wild type (WT) mice [10]; WT mice,no effect on novel object exploration
same,Time of exploration,Wild type (WT) mice [10]; listed as Rasagilina,100.0 s
same,Time of exploration,Wild type (WT) mice [10]; listed as Rasagilins,115.1 s
same,% Time exploring novel object,Wild type (WT) mice [10]; listed as Rasagilina,33.3%
same,% Time exploring novel object,Wild type (WT) mice [10]; listed as Rasagilins,38.4%
same,Time of exploration,"[11]; novel object, α-syn mutants receiving rasagiline, group mean, n = 11",79.3 s
same,% Time exploring novel object,"[11]; out of total time of the trial, α-syn mutants receiving rasagiline, group mean, n = 11",26.4%
same,effect on novel object exploration,[11]; α-syn mutants,no effect on novel object exploration
same,% Time exploring novel object,Wild type (WT) mice [12],96.2%
same,Time of Exploration (s) Familiar object,Wild type (WT) mice [12],3.0 s
same,Time of Exploration (s) Novel object,Wild type (WT) mice [12],85.0 s
same,Time of Exploration (s) Total,Wild type (WT) mice [12],88.0 s
same,novel object/odor discrimination ability,[13]; α-syn mutants,improves the discrimination ability of the mutants to substantially WT levels
same,% Time exploring novel object,[13]; [18],92.2%
same,Time of Exploration (s) Familiar object,[13]; [18],3.6 s
same,Time of Exploration (s) Novel object,[13]; [18],48.7 s
same,Time of Exploration (s) Total,[13]; [18],52.4 s
same,treating the symptoms of olfactory dysfunction,[14]; each of two transgenic mouse models,effective in treating the symptoms of olfactory dysfunction
same,functional decline,[14]; transgenic mouse models,effective in reducing the functional decline
same,rate of progression of olfactory dysfunction,[14]; transgenic mouse models,effective in reducing the rate of progression of olfactory dysfunction
